What was measured:
myeloid dendritic cells = assay: Lipid accumulation in dendritic cells exposed to ovarian cancer ascites supernatants (BODIPY 493/503 staining, flow cytometry); type: cell-based, mouse
From the text: FIG. 1D is flow cytometry analysis of lipid accumulation in mouse bone marrow-derived dendritic cells exposed to the indicated treatments, measured by BODIPY 493/503 staining intensity.

IRE1α = biological target: T1, IRE1α (Homo sapiens, UniProt O75460); assay: In vitro FRET assay (XBP1 RNA probe cleavage by IRE1α); details: biochemical FRET assay, 2 nM IRE1α
T1 construct: purchased SignalChem
Experimental: In vitro FRET assay was performed to evaluate the ability of select compounds to inhibit IRE1, the results of which are summarized in the following table.
To perform the in vitro FRET assay, 1× complete assay buffer (CAB; […], 50 mM sodium citrate pH 7.15, 1 mM magnesium acetate, 0.02% Tween 20) was used to dilute SignalChem IRE1α in protein to a final concentration of 2 nM. Selected compounds were serially diluted with DMSO in a non-binding black 384-well plate for a total of 15 μl in each well. 2 μl of the serially diluted compound or DMSO control were then added to new wells containing 98 μl of 1×CAB, for a total volume of 100 μl, 10 μl of which were then transferred to wells of a new plate. 5 μl of the diluted IRE1α was then added to each well. 5 μl of a […] XBP1 RNA probe was then added to each well. Fluorescence was then read over 30 minutes in kinetic mode (485/515 nm). Two RNA probes were used, XBP1 wildtype (CAUGUCCGCAGCACAUG; SEQ ID NO: 1) which is able to be spliced by active IRE1α or XBP1 mutant (CAUGUCCCCAGCACAUG; SEQ ID NO: 2) which is unable to be spliced. Each probe contained a 5′ 6-FAM modification and a 3′ IOWA Black FQ modification. […]

[1] = biological target: IRE1α kinase and endoribonuclease domains (Homo sapiens, UniProt O75460); details: cited from earlier work
Sequence of IRE1α kinase and endoribonuclease domains (O75460 19-977): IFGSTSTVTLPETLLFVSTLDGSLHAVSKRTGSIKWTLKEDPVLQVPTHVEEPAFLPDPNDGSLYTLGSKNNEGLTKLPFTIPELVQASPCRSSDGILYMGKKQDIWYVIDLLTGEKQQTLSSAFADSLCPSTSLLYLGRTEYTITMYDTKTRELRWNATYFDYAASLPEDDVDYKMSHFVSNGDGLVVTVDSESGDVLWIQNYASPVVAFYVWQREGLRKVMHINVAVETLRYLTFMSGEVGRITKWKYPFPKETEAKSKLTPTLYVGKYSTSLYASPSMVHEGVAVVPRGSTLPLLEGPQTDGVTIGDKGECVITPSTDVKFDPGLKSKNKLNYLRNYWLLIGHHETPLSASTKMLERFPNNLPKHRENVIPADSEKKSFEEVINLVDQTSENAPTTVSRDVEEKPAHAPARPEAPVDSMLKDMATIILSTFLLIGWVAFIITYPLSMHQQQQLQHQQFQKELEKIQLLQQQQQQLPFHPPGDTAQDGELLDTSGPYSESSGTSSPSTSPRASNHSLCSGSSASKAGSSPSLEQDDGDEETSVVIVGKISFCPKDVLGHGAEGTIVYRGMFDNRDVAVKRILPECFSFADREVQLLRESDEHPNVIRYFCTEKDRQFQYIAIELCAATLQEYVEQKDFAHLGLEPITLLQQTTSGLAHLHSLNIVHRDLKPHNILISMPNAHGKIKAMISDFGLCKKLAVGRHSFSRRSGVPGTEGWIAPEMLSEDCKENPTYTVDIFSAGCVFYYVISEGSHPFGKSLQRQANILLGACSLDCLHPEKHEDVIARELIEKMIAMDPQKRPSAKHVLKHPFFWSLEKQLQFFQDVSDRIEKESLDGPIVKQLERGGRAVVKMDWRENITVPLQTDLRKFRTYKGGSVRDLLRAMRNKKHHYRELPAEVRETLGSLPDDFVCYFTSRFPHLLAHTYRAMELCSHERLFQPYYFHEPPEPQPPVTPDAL

T1 sequence (O75460 19-977): as above

Q: With vitamin E as the molecule, how does the “pathological intracellular lipid accumulation” value (myeloid dendritic cells) read?
A: suppressed

Q: With `O=C(Nc1cccc(C(F)(F)F)c1)Nc1ccc2oc(-c3cccnc3)nc2c1` [Compound 57, 1-(2-(pyridin-3-yl)benzo[d]oxazol-5-yl)-3-(3-(trifluoromethyl)phenyl)urea] as the molecule, how does the EC50 (IRE1α) read?
A: 5 to 50 µM

Q: With `CN1COc2cc(NC(=O)Nc3cc(-c4ccc5ccncc5c4)n(C)n3)ccc2C1` [Compound 62, 1-(5-(isoquinolin-7-yl)-1-methyl-1H-pyrazol-3-yl)-3-(3-methyl-3,4-dihydro-2H-benzo[e][1,3]oxazin-7-yl)urea] as the molecule, how does the EC50 (IRE1α) read?
A: > 100 µM

Q: Which EC50 (IRE1α) does the source give for `CN1CCN(Cc2ccc(NC(=O)Nc3cc(-c4ccc5nc(N)nc(N)c5c4)n(C)n3)cc2C(F)(F)F)CC1` [Compound 29, 1-(5-(2,4-diaminoquinazolin-6-yl)-1-methyl-1H-pyrazol-3-yl)-3-(4-((4-methylpiperazin-1-yl)methyl)-3-(trifluoromethyl)phenyl)urea] here?
A: ≤ 5 µM

Q: Which EC50 (IRE1α) does the source give for `Cn1nc(NC(=O)Nc2ccc(CN3CCCCC3)c(C(F)(F)F)c2)cc1-c1ccc2ccncc2c1` [Compound 42, 1-(5-(isoquinolin-7-yl)-1-methyl-1H-pyrazol-3-yl)-3-(4-(piperidin-1-ylmethyl)-3-(trifluoromethyl)phenyl)urea] here?
A: > 100 µM

Q: For `Cc1nc(NC(=O)Nc2ccc(CN3CCN(C)CC3)c(C(F)(F)F)c2)[nH]c1-c1ccc2ccncc2c1` [Compound 46, 1-(5-(isoquinolin-7-yl)-4-methyl-4H-imidazol-2-yl)-3-(4-((4-methylpiperazin-1-yl)methyl)-3-(trifluoromethyl)phenyl)urea], which EC50 (IRE1α) is on record?
A: ≤ 5 µM

Q: Which EC50 (IRE1α) does the source give for `CN1CCN(Cc2ccc(NC(=O)Nc3ccc4oc(-c5cccnc5)nc4c3)cc2C(F)(F)F)CC1` [Compound 15, 1-(4-((4-methylpiperazin-1-yl)methyl)-3-(trifluoromethyl)phenyl)-3-(2-(pyridin-3-yl)benzo[d]oxazol-5-yl)urea] here?
A: > 100 µM

Q: Which EC50 (IRE1α) does the source give for `CN1CCN(Cc2ccc(NC(=O)Nc3cc(-c4cnc5ccccc5c4)n(C)n3)cc2C(F)(F)F)CC1` [Compound 25, 1-(1-methyl-5-(quinolin-3-yl)-1H-pyrazol-3-yl)-3-(4-((4-methylpiperazin-1-yl)methyl)-3-(trifluoromethyl)phenyl)urea] here?
A: 5 to 50 µM

Q: For `CN1CCN(Cc2ccc(NC(=O)Nc3cc(-c4ccc5ccncc5c4)n(C)n3)cc2)CC1` [Compound 47, 1-(5-(isoquinolin-7-yl)-1-methyl-1H-pyrazol-3-yl)-3-(4-((4-methylpiperazin-1-yl)methyl)phenyl)urea], which EC50 (IRE1α) is on record?
A: > 100 µM

Q: For `CN1CCN(Cc2ccc(NC(=O)Nc3cc(-c4ccnc5c4ccn5C)n(C)n3)cc2C(F)(F)F)CC1` [Compound 12, 1-(1-methyl-5-(1-methyl-1H-pyrrolo[2,3-b]pyridin-4-yl)-1H-pyrazol-3-yl)-3-(4-((4-methylpiperazin-1-yl)methyl)-3-(trifluoromethyl)phenyl)urea], which EC50 (IRE1α) is on record?
A: 5 to 50 µM

Q: Which EC50 (IRE1α) does the source give for `CN1CCN(Cc2ccc(NC(=O)Nc3cc(-c4ccc5ccc(O)nc5c4)n(C)n3)cc2C(F)(F)F)CC1` [Compound 23, 1-(5-(2-hydroxyquinolin-7-yl)-1-methyl-1H-pyrazol-3-y1)-3-(4-((4-methylpiperazin-1-yl)methyl)-3-(trifluoromethyl)phenyl)urea] here?
A: 5 to 50 µM

Q: Which EC50 (IRE1α) does the source give for `CN1CCN(Cc2ccc(NC(=O)Nc3cc(-c4ccc5cc(N)ncc5c4)[nH]n3)cc2C(F)(F)F)CC1` [Compound 52, 1-(5-(3-aminoisoquinolin-7-yl)-1H-pyrazol-3-yl)-3-(4-((4-methylpiperazin-1-yl)methyl)-3-(trifluoromethyl)phenyl)urea] here?
A: ≤ 5 µM

Q: With `CN1CCN(Cc2ccc(NC(=O)Nc3cc(-c4ccc5nc(N)nc(O)c5c4)n(C)n3)cc2C(F)(F)F)CC1` [Compound 27, 1-(5-(2-amino-4-hydroxyquinazolin-6-yl)-1-methyl-1H-pyrazol-3-yl)-3-(4-((4-methylpiperazin-1-yl)methyl)-3-(trifluoromethyl)phenyl)urea] as the molecule, how does the EC50 (IRE1α) read?
A: ≤ 5 µM

Q: Which EC50 (IRE1α) does the source give for `CN1CCN(Cc2ccc(NC(=O)Nc3nn(C)c4cc(-c5cnc(N)cn5)ccc34)cc2C(F)(F)F)CC1` [Compound 10, 1-(6-(5-aminopyrazin-2-yl)-1-methyl-1H-indazol-3-yl)-3-(4-((4-methylpiperazin-1-yl)methyl)-3-(trifluoromethyl)phenyl)urea] here?
A: 5 to 50 µM

Q: Which EC50 (IRE1α) does the source give for `CN1CCN(Cc2ccc(NC(=O)Nc3nn(C)c4cc(-c5cccnc5)ccc34)cc2C(F)(F)F)CC1` [Compound 1, 1-(1-methyl-6-(pyridin-3-yl)-1H-indazol-3-yl)-3-(4-((4-methylpiperazin-1-yl)methyl)-3-(trifluoromethyl)phenyl)urea] here?
A: ≤ 5 µM

Q: With `Cn1nc(NC(=O)Nc2ccc(CN3CCC(O)CC3)c(C(F)(F)F)c2)cc1-c1ccc2ccncc2c1` [Compound 41, 1-(4-((4-hydroxypiperidin-1-yl)methyl)-3-(trifluoromethyl)phenyl)-3-(5-(isoquinolin-7-yl)-1-methyl-1H-pyrazol-3-yl)urea] as the molecule, how does the EC50 (IRE1α) read?
A: > 100 µM

Q: For `CC(C)n1nc(-c2ccc(NC(=O)Nc3cccc(C(F)(F)F)c3)cc2)c2c(N)ncnc21` [SRC inhibitor, 1-(4-(4-Amino-1-isopropyl-1H-pyrazolo[3,4-d]pyrimidin-3-yl)phenyl)-3-(3-(trifluoromethyl)phenyl)urea], which “inhibition of IRE1α kinase and endoribonuclease domains” value [1] is on record?
A: inhibits

Q: With `CN1CCN(Cc2ccc(NC(=O)Nc3cc(-c4ccc(-c5cccc6nccnc56)cc4)n(C)n3)cc2C(F)(F)F)CC1` [Compound 53] as the molecule, how does the EC50 (IRE1α) read?
A: > 100 µM

Q: Which EC50 (IRE1α) does the source give for `Cn1nc(NC(=O)Nc2ccc(CN3CCCCCC3)c(C(F)(F)F)c2)cc1-c1ccc2ccncc2c1` [Compound 38, 1-(4-(azepan-1-ylmethyl)-3-(trifluoromethyl)phenyl)-3-(5-(isoquinolin-7-yl)-1-methyl-1H-pyrazol-3-yl)urea] here?
A: > 100 µM

Q: With `CN1CCN(Cc2ccc(NC(=O)Nc3cc(-c4ccc5nc(C(F)F)[nH]c(=O)c5c4)n(C)n3)cc2C(F)(F)F)CC1` [Compound 8, 1-(5-(2-(difluoromethyl)-4-oxo-3,4-dihydroquinazolin-6-yl)-1-methyl-1H-pyrazol-3-yl)-3-(4-((4-methylpiperazin-1-yl)methyl)-3-(trifluoromethyl)phenyl)urea] as the molecule, how does the EC50 (IRE1α) read?
A: ≤ 5 µM

Reference: patent publication US10125123B2, “Small molecule IRE1-α inhibitors” (Cornell University, priority 2016, dated 2018)
